Measured values taken from patent US20240109903A1, “SUBSTITUTED HETEROCYCLES FOR TREATING CANCER” (Northwestern University, priority 2022, published 2024).
Read-outs that look alike come from different tables or passages of the source.

How the values were obtained:
Type in all cases: cell-based
TK-10 = test: NCI 60 five-dose screen TK-10; settings: Homo sapiens, five-dose
NCI-H226 = test: NCI 60 five-dose screen NCI-H226; settings: Homo sapiens, five-dose
SK-MEL-5 = test: NCI 60 five-dose screen SK-MEL-5; settings: Homo sapiens, five-dose
SK-OV-3 = test: NCI 60 five-dose screen SK-OV-3; settings: Homo sapiens, five-dose
UO-31 = test: NCI 60 five-dose screen UO-31; settings: Homo sapiens, five-dose
MDA-MB-231/ATCC = test: NCI 60 five-dose screen MDA-MB-231/ATCC; settings: Homo sapiens, five-dose
MDA-MB-468 = test: NCI 60 five-dose screen MDA-MB-468; settings: Homo sapiens, five-dose
MALME-3M = test: NCI 60 five-dose screen MALME-3M; settings: Homo sapiens, MALME-3M, five-dose
SK-MEL-28 = test: NCI 60 five-dose screen SK-MEL-28; settings: Homo sapiens, five-dose
DU-145 = test: NCI 60 five-dose screen DU-145; settings: Homo sapiens, five-dose
786-0 = test: NCI 60 five-dose screen 786-0; settings: Homo sapiens, five-dose
LOX IMVI = test: NCI 60 five-dose screen LOX IMVI; settings: Homo sapiens, five-dose
EKVX = test: NCI 60 five-dose screen EKVX; settings: Homo sapiens, five-dose
K-562 = test: NCI 60 five-dose screen K-562; settings: Homo sapiens, K562, five-dose
MDA-MB-435 = test: NCI 60 five-dose screen MDA-MB-435; settings: Homo sapiens, five-dose
SW-620 = test: NCI 60 five-dose screen SW-620; settings: Homo sapiens, five-dose
RPMI-8226 = test: NCI 60 five-dose screen RPMI-8226; settings: Homo sapiens, five-dose
[1] = system: MV-4-11 acute myeloid leukemia cells; test: CellTiter-Glo 2.0 cell viability, MV-4-11; settings: Homo sapiens
Summary of the method: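 MV4-11 cells plated at 3,000 cells/well on pre-dispensed compounds and incubated 3 days at 37 °C, 5% CO2. Viability read as ATP-dependent luminescence with CellTiter-Glo 2.0 after 20 min at ambient temperature, followed by regression analysis.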

SNB-19 = test: NCI 60 five-dose screen SNB-19; settings: Homo sapiens, five-dose
NCI-H23 = test: NCI 60 five-dose screen NCI-H23; settings: Homo sapiens, five-dose
RXF 393 = test: NCI 60 five-dose screen RXF 393; settings: Homo sapiens, five-dose
BT-549 = test: NCI 60 five-dose screen BT-549; settings: Homo sapiens, five-dose
MOLT-4 = test: NCI 60 five-dose screen MOLT-4; settings: Homo sapiens, five-dose
PC-3 = test: NCI 60 five-dose screen PC-3; settings: Homo sapiens, five-dose
OVCAR-3 = test: NCI 60 five-dose screen OVCAR-3; settings: Homo sapiens, five-dose
[2] = read-out: LC50 (the source's name) (converted)
[3] = read-out: LC50 (the source's name)

SMILES: FC(F)(F)c1cc2c(Cl)ncnc2n1CCN1CCCCC1 [NUCC-0226679]
- GI50 (TK-10): 100 µM
- IC50 (TK-10): 100 µM
- IC (TGI) (TK-10): 100 µM
- CC50 (TK-10; [2]): ≥ 100 µM
- GI50 (NCI-H226): 60.3 µM
- IC50 (NCI-H226): 100 µM
- IC (TGI) (NCI-H226): 100 µM
- CC50 (NCI-H226; [2]): ≥ 100 µM
- GI50 (SK-MEL-5): 14.8 µM
- IC50 (SK-MEL-5): 26.3 µM
- IC (TGI) (SK-MEL-5): 30.9 µM
- CC50 (SK-MEL-5; [2]): 64.6 µM
- GI50 (SK-OV-3): 52.5 µM
- IC50 (SK-OV-3): 100 µM
- IC (TGI) (SK-OV-3): 100 µM
- CC50 (SK-OV-3; [2]): ≥ 100 µM
- GI50 (UO-31): 1.74 µM
- IC50 (UO-31): 3.31 µM
- IC (TGI) (UO-31): 3.55 µM
- CC50 (UO-31; [2]): 7.41 µM
- GI50 (MDA-MB-231/ATCC): 5.5 µM
- IC50 (MDA-MB-231/ATCC): 14.5 µM
- IC (TGI) (MDA-MB-231/ATCC): 19.5 µM
- CC50 (MDA-MB-231/ATCC; [2]): 50.1 µM
- GI50 (MDA-MB-468): 3.02 µM
- IC50 (MDA-MB-468): 18.2 µM
- IC (TGI) (MDA-MB-468): 9.33 µM
- CC50 (MDA-MB-468; [2]): 38.9 µM
- GI50 (MALME-3M): 19.1 µM
- IC50 (MALME-3M): 63.1 µM
- IC (TGI) (MALME-3M): 55 µM
- CC50 (MALME-3M; [2]): ≥ 100 µM
- GI50 (SK-MEL-28): 15.8 µM
- IC50 (SK-MEL-28): 30.2 µM
- IC (TGI) (SK-MEL-28): 38 µM
- CC50 (SK-MEL-28; [2]): 89.1 µM
- GI50 (DU-145): 30.2 µM
- IC50 (DU-145): 50.1 µM
- IC (TGI) (DU-145): 100 µM
- CC50 (DU-145; [2]): ≥ 100 µM
- GI50 (786-0): 39.8 µM
- IC50 (786-0): 66.1 µM
- IC (TGI) (786-0): 100 µM
- CC50 (786-0; [2]): ≥ 100 µM
- GI50 (LOX IMVI): 1.7 µM
- IC50 (LOX IMVI): 2.95 µM
- IC (TGI) (LOX IMVI): 3.09 µM
- CC50 (LOX IMVI; [2]): 5.75 µM
- GI50 (EKVX): 16.2 µM
- IC50 (EKVX): 51.3 µM
- IC (TGI) (EKVX): 85.1 µM
- CC50 (EKVX; [2]): ≥ 100 µM
- GI50 (K-562): 2.88 µM
- IC50 (K-562): 3.63 µM
- IC (TGI) (K-562): 100 µM
- CC50 (K-562; [3]): ≥ 100 µM
- GI50 (MDA-MB-435): 13.2 µM
- IC50 (MDA-MB-435): 21.9 µM
- IC (TGI) (MDA-MB-435): 30.2 µM
- CC50 (MDA-MB-435; [2]): 67.6 µM
- GI50 (SW-620): 11.2 µM
- IC50 (SW-620): 15.8 µM
- IC (TGI) (SW-620): 28.8 µM
- CC50 (SW-620; [2]): 74.1 µM
- GI50 (RPMI-8226): 31.6 µM
- IC50 (RPMI-8226): 45.7 µM
- IC (TGI) (RPMI-8226): 100 µM
- CC50 (RPMI-8226; [3]): ≥ 100 µM
- IC50 ([1]; MV4-11, 72 h, MV-4-11 cells, 3 days, CellTiter-Glo 2.0, read-out: IC50 (uM) [Cell Type: MV-4-11]): 0.675 µM
- IC50 ([1]; MV4-11, bound stated in text, read-out: IC50 against MV-4-11 acute myeloid leukemia cells): < 2 µM
- GI50 (SNB-19): 15.1 µM
- IC50 (SNB-19): 28.2 µM
- IC (TGI) (SNB-19): 30.9 µM
- CC50 (SNB-19; [2]): 64.6 µM
- GI50 (NCI-H23): 13.8 µM
- IC50 (NCI-H23): 28.2 µM
- IC (TGI) (NCI-H23): 38.9 µM
- CC50 (NCI-H23; [2]): ≥ 100 µM
- GI50 (RXF 393): 15.5 µM
- IC50 (RXF 393): 45.7 µM
- IC (TGI) (RXF 393): 40.7 µM
- CC50 (RXF 393; [2]): ≥ 100 µM
- GI50 (BT-549): 15.1 µM
- IC50 (BT-549): 30.2 µM
- IC (TGI) (BT-549): 29.5 µM
- CC50 (BT-549; [2]): 58.9 µM
- GI50 (MOLT-4): 10.5 µM
- IC50 (MOLT-4): 25.1 µM
- IC (TGI) (MOLT-4): 55 µM
- CC50 (MOLT-4; [3]): ≥ 100 µM
- GI50 (PC-3): 15.1 µM
- IC50 (PC-3): 25.7 µM
- IC (TGI) (PC-3): 47.9 µM
- CC50 (PC-3; [2]): ≥ 100 µM
- GI50 (OVCAR-3): 17.8 µM
- IC50 (OVCAR-3): 33.1 µM
- IC (TGI) (OVCAR-3): 35.5 µM
- CC50 (OVCAR-3; [2]): 72.4 µM
